Source: PubChem BioAssay AID850 (SRMLSC, 2007)
Active and inactive are the calls of the source. The rule behind the calls is not given here.

Columns and labels:
[1] = concentration-response yeast growth inhibition under permissive conditions, counter-assay for yeast lifespan-shortening chemical project (AID 850); settings: Saccharomyces cerevisiae growth inhibition, permissive control, measured here: maximum growth inhibition, stronger effect = higher value;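 note: growth read as optical density after one day of incubation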
[2] = tested on: Saccharomyces cerevisiae growth inhibition, permissive control; test: as above

| SMILES | inhibition ([1]; at 50 µM) [%] | IC50 [2] | other results |
| --- | --- | --- | --- |
| O=C(O)c1cc2c(s1)-c1ccccc1CC2 | 47.3 | 50.5 µM |  |
| CCCCOC(=O)n1c(=S)oc2cc(Cl)ccc21 | 99.8 | 14.5 µM |  |
| CCCCCCOC(=O)Sc1nc2ccccc2o1 | 99 | 11.7 µM |  |
| O=C(c1cc(-c2ccccc2O)on1)N1CCc2ccccc2C1 |  | > 100 µM (inactive) | inhibition ([1]; at 0.391 µM): 16.3% |
| Fc1ccc(N/N=C2/CC(c3ccccc3)Oc3ccccc32)c(F)c1 (stereo unspecified) | 95.9 | 25.9 µM |  |
| Cc1nnc(NC(=O)CSc2nnc(Cc3cccn3C)n2-c2ccccc2)s1 |  | > 100 µM (inactive) | inhibition ([1]; at 0.781 µM): 11.8% |
| COc1ccc(OC)c(C2CC(=O)N3CN(c4cccc(Cl)c4)CSC3=C2C#N)c1 (stereo unspecified) |  | > 100 µM (inactive) | inhibition ([1]; at 25 µM): 15.2% |
| O=C(OCn1ncc(Cl)c(Cl)c1=O)c1ccc(F)cc1 | 23 | > 100 µM (inactive) |  |
| CCCCCCCCCCCCCCCC[n+]1ccc(/C=N/O)cc1 | 100 | 1.07 µM |  |
| Cc1nn2c3ccccc3nc2c2ccccc12 |  | > 100 µM (inactive) | inhibition ([1]; at 0.195 µM): 15.3% |
| COc1ccc(Br)cc1C1CC(=O)N2CN(C)CSC2=C1C#N (stereo unspecified) |  | > 100 µM (inactive) | inhibition ([1]; at 1.563 µM): 17% |
| CCOC(=O)c1c(-c2ccc(-c3ccccc3)cc2)csc1NC(=O)CCN1CCOCC1 | 94.6 | 15.5 µM |  |
| CCN1/C(=C/c2ccc3cc(C)ccc3[n+]2CC)Sc2ccccc21 | 99.4 | 3.44 µM |  |
| O=c1cc(-c2ccncc2)oc2ccccc12 |  | > 100 µM (inactive) | inhibition ([1]; at 3.125 µM): 20.9% |
| CC(C)(C)C(O)C(Oc1ccc(Cl)cc1)n1cncn1 (stereo unspecified) |  | 2.15 µM | inhibition ([1]; at 12.5 µM): 95.1% |
| CCc1ccc(C2NC(=S)NC3=C2C(=O)N(c2ccccc2OC)C(c2ccc(CC)cc2)N3)cc1 (stereo unspecified) |  | > 100 µM (inactive) | inhibition ([1]; at 0.781 µM): 2.18% |
| Cc1ccc2nc(-c3ccc(NS(C)(=O)=O)cc3)cc(-c3ccccc3)c2c1 | 22.2 | > 100 µM (inactive) |  |
| COC(=O)c1ccc(C(=O)OC)c(NC(=O)CSc2cccc[n+]2[O-])c1 |  | 1.09 µM | inhibition [1]: 100% |
| O=C1c2cccc3cccc(c23)C(=O)N1c1cccnc1 | 27.9 | > 100 µM (inactive) |  |
| Clc1ccc(COC(Cn2ccnc2)c2ccc(Cl)cc2Cl)c(Cl)c1 (stereo unspecified) | 101 | < 0.098 µM |  |
| O=C(O)c1ccc2nc(-c3ccccc3)sc2c1 |  | > 100 µM (inactive) | inhibition ([1]; at 0.781 µM): 28.2% |

| SMILES | inhibition ([1]; at 50 µM) [%] | IC50 [2] | other results |
| --- | --- | --- | --- |
| Cc1ccc(N/N=C(\C#N)C(N)=S)c(C)c1 |  | > 100 µM (inactive) | inhibition ([1]; at 25 µM): 4.57% |
| O=C(COc1ccccc1)NNC(=S)NC(=O)c1ccc(Cl)cc1Cl | 84.4 | 25.7 µM |  |
| N/C(Cc1ccc(Cl)cc1)=N\OC(=O)c1cccc2ccccc12 | 99.6 | 44.3 µM |  |
| COc1ccccc1OCCN1CSC(=S)N(C)C1 | 82.4 | 17.2 µM |  |
| C=CCc1c(C)c(C#N)c2nc3ccccc3n2c1NCCN(C)C | 98.6 | 12.5 µM |  |
| Cc1cccc(NC(=O)CC2SC(=O)N(c3ccccc3)C2=O)c1 (stereo unspecified) | -6.43 | > 100 µM (inactive) |  |
| Cc1ccc(/C=C/C(=O)c2ccccc(=O)c2O)c(C)c1 |  | 6.08 µM | inhibition ([1]; at 25 µM): 101% |
| COC(=O)c1ccc(CSc2ccc3nnc(-c4cccc(F)c4)n3n2)o1 |  | > 100 µM (inactive) | inhibition ([1]; at 6.25 µM): 17.7% |
| CCC(=C(c1ccc(OC)cc1)c1ccc(OC)cc1)c1cn(CC(O)CN2CCN(C)CC2)c2ccccc12 (stereo unspecified) | 93.2 | 33.9 µM |  |
| S=C(NCc1ccc(Cl)cc1Cl)NC1CCCCC1 | 22.8 | > 100 µM (inactive) |  |
| O=C(O)CCSc1nnc(-c2ccccc2)n1-c1ccccc1 |  | > 100 µM (inactive) | inhibition ([1]; at 1.563 µM): 15.8% |
| Cc1cc(C(=O)COC(=O)c2ccc[nH]c2=O)c(C)n1-c1ccccc1 | 67.1 | 26.9 µM |  |
| OCc1ccnc2c(O)cccc12 | 44.1 | 50.6 µM |  |
| Nc1c(C(=O)NCCc2ccccc2)c2nc3ccccc3nc2n1CCN1CCOCC1 | 99.8 | 42.4 µM |  |
| NC(=O)c1ccc(N=Cc2ccc([N+](=O)[O-])s2)cc1 | 101 | 11 µM |  |
| Oc1ccc(-c2csc(-c3ccccc3)n2)cc1O | 99.8 | 21.9 µM |  |
| COC(=O)Cc1cc(=O)n(-c2nc3ccccc3[nH]2)[nH]1 | 64.1 | 45.1 µM |  |
| CCn1c(Sc2nc(C)nc3scc(-c4cccs4)c23)n[nH]c1=O |  | 22.9 µM | inhibition ([1]; at 25 µM): 55.1% |
| O=c1c2sc(-c3ccccc3)cc2nc2n1CCC2 | 83.4 | 14.6 µM |  |
| c1ccc(-c2ccc(C(c3ccccc3)n3ccnc3)cc2)cc1 (stereo unspecified) |  | 0.793 µM | inhibition ([1]; at 3.125 µM): 94.4% |
| CC(C)(C)c1nnc(N/N=C/c2cc(Br)ccc2O)n(N)c1=O | 50.9 | 49.9 µM |  |

| SMILES | inhibition ([1]; at 50 µM) [%] | IC50 [2] | other results |
| --- | --- | --- | --- |
| COc1cc(CNCCN2CCOCC2)ccc1OCc1cccc(Cl)c1 |  | > 100 µM (inactive) | inhibition ([1]; at 25 µM): 12.3% |
| S=C1SCN(Cc2ccccn2)CN1Cc1ccco1 | 55.7 | 43.4 µM |  |
| Oc1cccc(C=NCc2ccccc2)c1O | 98.8 | 10.4 µM |  |
| Oc1ccc2ccccc2c1N=Nc1ccccn1 | 97.5 | 25 µM |  |
| Cc1cccc(C(=O)Oc2csc(=S)n2C(=O)c2cccc(C)c2)c1 | 55.6 | 47.8 µM |  |
| CC(C)(C)n1nc(-c2ccc(F)cc2)c2c(N)ncnc21 |  | < 0.098 µM | inhibition ([1]; at 25 µM): 86.7% |
| CC(Sc1cccc[n+]1[O-])C(=O)Nc1cccc(S(=O)(=O)N2CCOCC2)c1 (stereo unspecified) | 99.8 | 8.22 µM |  |
| CCOC(=O)c1cc([N+](=O)[O-])c([N+](=O)[O-])cc1NC(C)=O |  | < 0.098 µM | inhibition ([1]; at 12.5 µM): 99.6% |
| O=C(Nc1cccc(N=Cc2cc(Br)cc(Br)c2O)c1)c1ccco1 | 100 | 11.1 µM |  |
| O=C1c2ccccc2NC(c2ccc(-c3cccc(Cl)c3)o2)N1O (stereo unspecified) | 52.3 | 47.1 µM |  |
| Cc1nc2ccc(C(=O)O)cc2[nH]1 |  | > 100 µM (inactive) | inhibition ([1]; at 0.391 µM): 27.5% |
| CCOc1cc(C2CC(=O)N3CN(C4CCCCC4)CSC3=C2C#N)ccc1O (stereo unspecified) |  | > 100 µM (inactive) | inhibition ([1]; at 0.781 µM): 8.66% |
| N#CSCC(=O)c1cccc2ccccc12 |  | > 100 µM (inactive) | inhibition ([1]; at 12.5 µM): 26.9% |
| O=C(O)c1ccccc1C(=O)NNc1ccc(Cl)cc1 | 96.5 | 7.11 µM |  |
| CC(NC(=O)/C(C#N)=C/c1ccc(Cl)c([N+](=O)[O-])c1)c1ccccc1 (stereo unspecified) | 15 | > 100 µM (inactive) |  |
| O=[N+]([O-])c1ccc(O)c2ncccc12 |  | 0.483 µM | inhibition ([1]; at 12.5 µM): 99.4% |
| Cc1ccc(/C=C/C(=O)c2ccccc(=O)c2O)cc1C |  | 4.5 µM | inhibition ([1]; at 25 µM): 98.9% |
| Cn1c(C(C#N)C(=O)c2ccco2)nc2ccccc21 (stereo unspecified) | 17.5 | > 100 µM (inactive) |  |
| O=C(O)Cc1ccc2sc(-c3ccccc3)nc2c1 | 26.9 | > 100 µM (inactive) |  |
| COc1ccc(C(=O)/C=C/N2CCCCC2)cc1OC | 91.2 | 29.4 µM |  |
| CC1=NOC(=O)/C1=C/c1ccc(-c2ccc(Cl)cc2)o1 |  | 11 µM | inhibition ([1]; at 25 µM): 90.5% |

| SMILES | inhibition ([1]; at 50 µM) [%] | IC50 [2] | other results |
| --- | --- | --- | --- |
| c1ccc2nc3ccccc3nc2c1 | 55.6 | 44.8 µM |  |
| O=C1CCCC/C1=N\Nc1ccc(OCc2ccccc2)cc1 | 72.5 | 29.7 µM |  |
| CCOC(=O)C(=NC(C)CC)NNc1ccc(Br)cc1 (stereo unspecified) | 97.4 | 4.03 µM |  |
| Cc1nnc(C)n1/N=C/c1cc(Br)cc(Br)c1O | 99.2 | 0.324 µM |  |
| Cc1ccc(Nc2cc(C)nn2-c2nc(C)cc(=O)[nH]2)cc1 |  | 0.708 µM | inhibition ([1]; at 6.25 µM): 96.6% |
| O=C1c2ccccc2-c2nc3ccccc3nc21 | 27.3 | > 100 µM (inactive) |  |
| O=C(N/N=C\c1cccc([N+](=O)[O-])c1O)C1COc2ccccc2O1 (stereo unspecified) | 74.8 | 22 µM |  |
| O=c1[nH]c(Nc2ccccc2)cc2ccccc12 | 25.9 | > 100 µM (inactive) |  |
| CCOC(=O)c1c(NC(=S)Nc2ccc(Cl)cc2)sc2c1CCN(C)C2 |  | 8.2 µM | inhibition ([1]; at 25 µM): 99.8% |
| C=CCn1cnc2c(c1=O)c1nc3ccccc3nc1n2/N=C/c1cc(OC)c(OC)c(OC)c1 |  | 25.8 µM | inhibition ([1]; at 25 µM): 46.7% |
| CC(C)(C)c1ccc(NC(=O)COC(=O)c2ccc([N+](=O)[O-])s2)cc1 | 56.3 | 49.5 µM |  |
| Cc1cccc(OCCn2cc(/C=N/NC(=O)c3ccncc3)c3ccccc32)c1 |  | > 100 µM (inactive) | inhibition ([1]; at 0.781 µM): 10% |
| CCC(=O)NC(c1ccc(C)cc1)c1cc([N+](=O)[O-])c2cccnc2c1O (stereo unspecified) | 60.6 | 43.5 µM |  |
| O=S(=O)(Nc1ccc(-n2cccc2)cc1)c1ccc(Cl)cc1Cl |  | > 100 µM (inactive) | inhibition ([1]; at 0.391 µM): 29.9% |
| C=CCN1C(=O)/C(=C/c2cccs2)C(=O)NC1=S | 99.8 | 6.15 µM |  |
| CC1(CCc2ccccc2)NC(=S)N(c2ccc(Cl)cc2)N1 (stereo unspecified) | 99.6 | 20.1 µM |  |
| Fc1ccc2nc3[nH]c4ccccc4c3nc2c1 | 20.7 | > 100 µM (inactive) |  |
| COc1cc(OC)c(C2CC(=O)N3CN(C)CSC3=C2C#N)cc1OC (stereo unspecified) |  | > 100 µM (inactive) | inhibition ([1]; at 0.781 µM): 11% |
| Cc1cc(C)c2c(=O)n(CC(=O)N3CCC(Cc4ccccc4)CC3)sc2n1 |  | > 100 µM (inactive) | inhibition ([1]; at 0.391 µM): 6.81% |
| Cc1cc(=O)[nH]c(-n2nc(C)cc2C)n1 | 99.6 | 15.4 µM |  |
